Read-outs that look alike come from different tables or passages of the source.
What was measured:
[1] = tested on: non-malignant CHO-K1 cell line; assay: Sulforhodamine B (SRB) growth inhibition / cytotoxicity, CHO-K1; assay type: cell-based; settings: Cricetulus griseus, mean ± SE, read-out: IC50 (mM) CHO-K1 cells
Method: Biological assays were performed using adenocarcinoma colon cancer (SW480) and non-malignant (CHO-K1) cell lines obtained from The European Collection of Authenticated Cell Cultures (ECACC, England). Cells were cultured in 25-cm^2 flasks containing Dulbecco’s Modified Eagle Medium, supplemented with 10% heat-inactivated (56 °C) horse serum, 1% penicillin/streptomycin and 1% non-essential amino acids (Gibco Invitrogen, Carlsbad, USA). For all experiments, horse serum was reduced to 3%, and the medium was supplemented with […] (ITS-defined medium; Gibco, Invitrogen, Carlsbad, USA) ([33]).
The growth inhibition of the ethanol extract, the Chromone and 5-fluorouracil (5-FU; the standard drug) was evaluated through sulforhodamine B (SRB) assay, a colorimetric test that is based on staining of total cellular protein of adherent cells. Cells were seeded to a ﬁnal density of 20.000 cells/well in 96-well tissue culture plates and incubated at 37 °C in a humidified atmosphere at 5% CO2. All cultures were allowed to grow for 24 h. Afterward, they were treated with 1% of DMSO (vehicle control) or increasing concentrations (10^-5–0,2 mM) of the compounds. After treatment, cells were fixed with trichloroacetic acid (50% v/v; MERCK) for one hour at 4 °C. Cell proteins were determined by staining with SRB (0.4% w/v; Sigma-Aldrich, United States), then they were washed with 1% acetic acid to remove unbound SRB and left for air-drying. Protein-bound SRB was solubilized in 10 mM Tris-base, and the absorbance was measured at 492 nm in a microplate reader (Mindray MR-96A) ([33], [34]). All experiments were performed in quintuplicate. These values were used to calculate the IC50, through dose-response curves for each compound and the selectivity index (SI), by the ratio of IC50 values in non-malignant CHO-K1 cells to IC50 of SW480 cells.
All experiments were performed at least three times. Data are reported as mean ± SE (standard error). Statistical differences between the control group (non-treated) and treated cells were evaluated by one-way ANOVA followed by the Dunnett’s test. Values with p ≤ 0.05 were considered significant. Data were analyzed with GraphPad Prism version 7.04 for Windows (Graph Pad Software, San Diego, California, USA).

[2] = tested on: SW480 human colon adenocarcinoma cells; assay: Sulforhodamine B (SRB) growth inhibition / cytotoxicity, SW480; assay type: cell-based; settings: for SI (selectivity index): ratio IC50 CHO-K1 / IC50 SW480; for IC50: Homo sapiens, SRB, mean ± SE; for IC50 / cytotoxic activity (in words): SW480; for cytotoxic activity (in words): 24 h and 48 h after treatment;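 on all read-outs here: cells exposed to graded doses from 10^-5 to 0.2 mM, with 1% DMSO as vehicle control, and cellular protein quantified by SRB staining after trichloroacetic acid fixation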
Method: Cells were cultured in 25-cm^2 flasks containing Dulbecco’s Modified Eagle Medium, supplemented with 10% heat-inactivated (56 °C) horse serum, 1% penicillin/streptomycin and 1% non-essential amino acids (Gibco Invitrogen, Carlsbad, USA). For all experiments, horse serum was reduced to 3%, and the medium was supplemented with 5 mg/mL transferrin, 5 mg/mL selenium and 10 mg/mL insulin (ITS-defined medium; Gibco, Invitrogen, Carlsbad, USA) ([33]).

[3] = tested on: non-cancer CCD841 cells; parameters: method as in PMID 30429977; settings: compared with CRC cell lines; cited from earlier work

melting point [°C] | Structure (SMILES) | IC50 ([1]; 24 h) [mM] | IC50 ([1]; 48 h) [mM] | SI (selectivity index) ([2]; 48 h) | IC50 ([2]; 24 h) [mM] | IC50 ([2]; 48 h) [mM] | cytotoxic activity (in words) [2] | SI (selectivity index) ([2]; 24 h) | SI (selectivity index) ([2]; 48 h, listed as 5-fluorouracil) | fold less inhibitory activity against non-cancer CCD841 cells [3] [fold]
 | COc1ccc2cc([C@H](C)C(=O)O)ccc2c1 [Naproxen, reference compound] | > 0.2 | > 0.2 |  |  |  |  |  |  | 
 | C=CCSC[C@H](NC(=O)Cc1ccccc1Nc1c(Cl)cccc1Cl)C(=O)OCC [10b, Ethyl S-allyl-N-(2-(2-((2,6-dichlorophenyl)amino)phenyl)acetyl)-L-cysteinate] | > 0.2 | > 0.2 | >1.53 | 0.24 ± 0.013 | 0.131 ± 0.012 |  |  |  | 
 | C=CCSC[C@H](NC(=O)C(C)c1ccc2cc(OC)ccc2c1)C(=O)OC (mixture of isomers) [11a, Methyl S-allyl-N-(2-(6-methoxynaphthalen-2-yl)propanoyl)-L-cysteinate] | > 0.2 | > 0.2 |  | > 0.2 | > 0.2 | displayed activity neither 24 h nor 48 h |  |  | 
 | C=CCSC[C@H](NC(=O)c1ccccc1O)C(=O)OCCC [9c, Propyl S-allyl-N-(2-hydroxybenzoyl)-L-cysteinate] | > 0.2 | > 0.2 |  | > 0.2 | > 0.2 | displayed activity neither 24 h nor 48 h |  |  | 
 | C=CCSC[C@H](NC(=O)Cc1ccccc1Nc1c(Cl)cccc1Cl)C(=O)OC [10a, Methyl S-allyl-N-(2-(2-((2,6-dichlorophenyl)amino)phenyl)acetyl)-L-cysteinate] | 0.18 ± 0.012 | 0.112 ± 0.008 |  | 0.192 ± 0.004 | 0.12 ± 0.004 |  |  |  | 
 | CC(=O)Oc1ccccc1C(=O)O [Aspirin, reference compound] | > 0.2 | > 0.2 |  | > 0.2 | > 0.2 |  |  |  | 
 | C=CCSC[C@H](NC(=O)c1ccccc1O)C(=O)OCC [9b, Ethyl S-allyl-N-(2-hydroxybenzoyl)-L-cysteinate] | > 0.2 | > 0.2 |  | 0.16 ± 0.013 | > 0.2 |  | >1.25 |  | 
65 to 67 | C=CCSC[C@H](NC(=O)C(C)c1ccc(CC(C)C)cc1)C(=O)OCC (mixture of isomers) [12b, Ethyl S-allyl-N-(2-(4-isobutylphenyl)propanoyl)-L-cysteinate] | > 0.2 | 0.241 ± 0.018 | 1.31 | > 0.2 | 0.183 ± 0.005 |  |  |  | 
 | CC(C)Cc1ccc(C(C)C(=O)O)cc1 (stereo not drawn) [Ibuprofen, reference compound] | > 0.2 | > 0.2 |  | > 0.2 | > 0.2 |  |  |  | 
 | C=CCSC[C@H](NC(=O)Cc1ccccc1Nc1c(Cl)cccc1Cl)C(=O)OCCC [10c, Propyl S-allyl-N-(2-(2-((2,6-dichlorophenyl)amino)phenyl)acetyl)-L-cysteinate] | 0.223 ± 0.005 | 0.167 ± 0.1 | 1.06 | 0.204 ± 0.005 | 0.158 ± 0.002 |  | 1.09 |  | 
89 to 91 | C=CCSC[C@H](NC(=O)C(C)c1ccc(CC(C)C)cc1)C(=O)OC (mixture of isomers) [12a, Methyl S-allyl-N-(2-(4-isobutylphenyl)propanoyl)-L-cysteinate] | > 0.2 | 0.201 ± 0.001 | 0.82 | > 0.2 | 0.244 ± 0.011 | displayed activity neither 24 h nor 48 h |  |  | 
 | O=C(O)Cc1ccccc1Nc1c(Cl)cccc1Cl [Diclofenac, reference compound] | > 0.2 | 0.202 ± 0.001 | 0.98 | 0.267 ± 0.01 | 0.206 ± 0.011 |  |  |  | 
 | O=c1[nH]cc(F)c(=O)[nH]1 [5-Fluorouracil, reference compound] | 0.125 ± 0.022 | 0.046 ± 0.015 | 1.22 | 0.096 ± 0.024 | 0.037 ± 0.013 |  |  | higher than 1 | 
 | C=CCSC[C@H](NC(=O)C(C)c1ccc2cc(OC)ccc2c1)C(=O)OCCC (mixture of isomers) [11c, Propyl S-allyl-N-(2-(6-methoxynaphthalen-2-yl)propanoyl)-L-cysteinate] | > 0.2 | > 0.2 |  | > 0.2 | 0.237 ± 0.012 | displayed activity neither 24 h nor 48 h |  |  | 
 | C=CCSC[C@H](NC(=O)C(C)c1ccc2cc(OC)ccc2c1)C(=O)OCC (mixture of isomers) [11b, Ethyl S-allyl-N-(2-(6-methoxynaphthalen-2-yl)propanoyl)-L-cysteinate] | > 0.2 | > 0.2 | >1.28 | > 0.2 | 0.156 ± 0.008 |  |  |  | 
58 to 60 | C=CCSC[C@H](NC(=O)C(C)c1ccc(CC(C)C)cc1)C(=O)OCCC (mixture of isomers) [12c, Propyl S-allyl-N-(2-(4-isobutylphenyl)propanoyl)-L-cysteinate] | > 0.2 | > 0.2 |  | 0.225 ± 0.01 | 0.209 ± 0.005 | displayed activity neither 24 h nor 48 h | >1.1 |  | 
112 to 114 | C=CCSC[C@H](NC(=O)c1ccccc1O)C(=O)OC [9a, Methyl S-allyl-N-(2-hydroxybenzoyl)-L-cysteinate] | 0.146 ± 0.016 | 0.157 ± 0.005 | <0.80 | > 0.2 | > 0.2 | displayed activity neither 24 h nor 48 h | <0.73 |  | 
 | COc1ccc(/C=C/C(=O)c2ccc(Cl)cc2)c(OC(=O)c2ccccc2OC(C)=O)c1 [compound 4] |  |  |  |  |  |  |  |  | 8

Source: article PMC8653649, “Promising Hybrids Derived from S-Allylcysteine and NSAIDs Fragments against Colorectal Cancer: Synthesis, In-vitro Evaluation, Drug-Likeness and In-silico ADME/tox Studies” (Iranian Journal of Pharmaceutical Research : IJPR, 2021)
